Laboratory results reported in US9856511B2, “Protease deubiquitinating inhibitor screening” (priority 2011, dated 2018).

Test system: HCT-116 Bcl-2+ colon carcinoma
Assay: Disease free survival of nude mice challenged with HCT-116 Bcl-2+ cells
Format: in vivo
Conditions: 5 mg/kg 4-5 times weekly for 3 weeks; log-rank P=0.0136
Experimental: Animal experiments were conducted in full accordance with Swedish governmental statutory regulations on animal welfare under permission from local ethical committees. Animals were housed at a max of five per cage and provided with sterile water and food ad libitum. All mice were monitored and weighed daily. For the head and neck carcinoma model a 100-μl cell suspension containing 1×10^6 FaDu cells was injected subcutaneously into the right rear flank of the animals. After injection, tumor growth was measured daily with calipers and the tumor volume calculated by the formula […]. When tumors had grown to a size of approximately 200 mm^3 (Day 0) mice were randomized to receive either vehicle (n=10) or b-AP15 5 mg/kg^−1 by subcutaneous injection s.c. (n=15) daily. […] Nineteen days after malignant cell injection all of the mice were killed and histopathological manifestations of liver, ovary (target organs for this model of tumor) were evaluated and compared between groups. […]
SCID mice bearing FaDu human tumor xenografts were randomized at tumor take (200 mm^3) and treated by daily subcutaneous injection with either vehicle (n=10) or 5 mg kg^−1 b-AP15 (n=15) for 10 days. […] Mice were treated with vehicle (n=6) or 5 mg kg^−1 b-AP15 (n=6) 4-5 times weekly for 3 weeks and monitored for tumor onset (log-rank, P=0.0136, hazard ratio=7.9). […]

Compound: C=CC(=O)N1C/C(=C\c2ccc([N+](=O)[O-])cc2)C(=O)/C(=C/c2ccc([N+](=O)[O-])cc2)C1 [b-AP15]
- disease free survival (tumor onset), hazard ratio: 7.9
